Assay results as given in ChEMBL document CHEMBL3868618, “Synthesis and biological evaluation of chalcone derivatives containing aminoguanidine or acylhydrazone moieties” (Bioorg Med Chem Lett, 2016).
≈ marks a conversion by molar mass, not a printed value.

What was measured:
Staphylococcus aureus [1] = assay: Antibacterial activity against Staphylococcus aureus 503 measured after 24 hrs by two-fold serial dilution method; assay type: functional; conditions: Staphylococcus aureus, 503, 24 h
Staphylococcus aureus [2] = assay: Antibacterial activity against Staphylococcus aureus 4220 measured after 24 hrs by two-fold serial dilution method; assay type: functional; conditions: Staphylococcus aureus, 4220, 24 h
Staphylococcus aureus [3] = assay: Antibacterial activity against Staphylococcus aureus 209 measured after 24 hrs by two-fold serial dilution method; assay type: functional; conditions: Staphylococcus aureus, 209, 24 h
Streptococcus mutans = assay: Antibacterial activity against Streptococcus mutans 3065 measured after 24 hrs by two-fold serial dilution method; assay type: functional; conditions: Streptococcus mutans, 3065, 24 h
Escherichia coli [4] = assay: Antibacterial activity against Escherichia coli 1924 measured after 24 hrs by two-fold serial dilution method; assay type: functional; conditions: Escherichia coli, 1924, 24 h
Escherichia coli [5] = assay: Antibacterial activity against Escherichia coli 1356 measured after 24 hrs by two-fold serial dilution method; assay type: functional; conditions: Escherichia coli, 1356, 24 h
Salmonella typhimurium = assay: Antibacterial activity against Salmonella typhimurium 1926 measured after 24 hrs by two-fold serial dilution method; assay type: functional, Salmonella enterica subsp. enterica serovar Typhimurium; conditions: Salmonella enterica, 1926, 24 h
Pseudomonas aeruginosa = assay: Antibacterial activity against Pseudomonas aeruginosa 2742 measured after 24 hrs by two-fold serial dilution method; assay type: functional; conditions: Pseudomonas aeruginosa, 2742, 24 h
Candida albicans = assay: Antifungal activity against Candida albicans 7535 measured after 24 hrs by two-fold serial dilution method; assay type: functional; conditions: Candida albicans, 7535, 24 h
Staphylococcus aureus [6] = assay: Antibacterial activity against methicillin-resistant Staphylococcus aureus 3167 measured after 24 hrs by two-fold serial dilution method; assay type: functional; conditions: Staphylococcus aureus, 3167, 24 h
Staphylococcus aureus [7] = assay: Antibacterial activity against methicillin-resistant Staphylococcus aureus 3506 measured after 24 hrs by two-fold serial dilution method; assay type: functional; conditions: Staphylococcus aureus, 3506, 24 h
Staphylococcus aureus [8] = assay: Antibacterial activity against quinolone-resistant Staphylococcus aureus 3505 measured after 24 hrs by two-fold serial dilution method; assay type: functional; conditions: Staphylococcus aureus, 3505, 24 h
Staphylococcus aureus [9] = assay: Antibacterial activity against quinolone-resistant Staphylococcus aureus 3519 measured after 24 hrs by two-fold serial dilution method; assay type: functional; conditions: Staphylococcus aureus, 3519, 24 h
Mus musculus = assay: Antiinflammatory activity in mouse assessed as inhibition of xylene-induced ear edema at 100 mg/kg, ip administered 30 mins before xylene challenge measured after 30 mins relative to DMSO-control; assay type: functional

Row | Structure (SMILES) | MIC (Staphylococcus aureus [1]) [µg/mL] | MIC (Staphylococcus aureus [2]) [µg/mL] | MIC (Staphylococcus aureus [3]) [µg/mL] | MIC (Streptococcus mutans) [µg/mL] | MIC (Escherichia coli [4]) [µg/mL] | MIC (Escherichia coli [5]) [µg/mL] | MIC (Salmonella typhimurium) [µg/mL] | MIC (Pseudomonas aeruginosa) [µg/mL] | MIC (Candida albicans) [µg/mL] | MIC (Staphylococcus aureus [6]) [µg/mL] | MIC (Staphylococcus aureus [7]) [µg/mL] | MIC (Staphylococcus aureus [8]) [µg/mL] | MIC (Staphylococcus aureus [9]) [µg/mL] | inhibition in vivo at 100 mg/kg (Mus musculus) [%]
1 | O=C(N/N=C/c1ccc(/C=C/C(=O)c2ccccc2Br)cc1)c1ccccc1 | > 64 | > 64 | > 64 | > 64 | > 64 | > 64 | > 64 | > 64 | > 64 | > 64 | > 64 | > 64 | > 64 | 
2 | COc1ccc(C(=O)/C=C/c2ccc(/C=N/NC(=N)N)cc2)cc1 | 16 (≈ 49.6 µM) | 16 (≈ 49.6 µM) | 16 (≈ 49.6 µM) | 8 (≈ 24.8 µM) | 16 (≈ 49.6 µM) | 32 (≈ 99.3 µM) | 2 (≈ 6.2 µM) | 8 (≈ 24.8 µM) | 8 (≈ 24.8 µM) | 16 (≈ 49.6 µM) | 8 (≈ 24.8 µM) | 16 (≈ 49.6 µM) | 16 (≈ 49.6 µM) | 57.2
3 | N=C(N)N/N=C/c1ccc(/C=C/C(=O)c2ccc(Cl)cc2)cc1 | 4 (≈ 12.2 µM) | 2 (≈ 6.12 µM) | 4 (≈ 12.2 µM) | 4 (≈ 12.2 µM) | 2 (≈ 6.12 µM) | 8 (≈ 24.5 µM) | 4 (≈ 12.2 µM) | 2 (≈ 6.12 µM) | 4 (≈ 12.2 µM) | 4 (≈ 12.2 µM) | 2 (≈ 6.12 µM) | 4 (≈ 12.2 µM) | 8 (≈ 24.5 µM) | 56.4
4 | Cc1ccc(C(=O)/C=C/c2ccc(/C=N/NC(=N)N)cc2)c(C)c1 | 8 (≈ 25 µM) | 4 (≈ 12.5 µM) | 8 (≈ 25 µM) | 8 (≈ 25 µM) | 8 (≈ 25 µM) | 8 (≈ 25 µM) | 8 (≈ 25 µM) | 4 (≈ 12.5 µM) | 8 (≈ 25 µM) | 8 (≈ 25 µM) | 4 (≈ 12.5 µM) | 8 (≈ 25 µM) | 8 (≈ 25 µM) | 64.2
5 | O=C(N/N=C/c1ccc(/C=C/C(=O)c2ccccc2Cl)cc1)c1ccccc1 | 64 (≈ 165 µM) | > 64 | 64 (≈ 165 µM) | > 64 | > 64 | > 64 | > 64 | > 64 | > 64 | 64 (≈ 165 µM) | 64 (≈ 165 µM) | 64 (≈ 165 µM) | 64 (≈ 165 µM) | 
6 | O=C(/C=C/c1ccc(/C=N/NC(=O)c2ccncc2)cc1)c1cccc(Br)c1 | 64 (≈ 147 µM) | 64 (≈ 147 µM) | 64 (≈ 147 µM) | > 64 | > 64 | > 64 | > 64 | > 64 | > 64 | 32 (≈ 73.7 µM) | 32 (≈ 73.7 µM) | 64 (≈ 147 µM) | 64 (≈ 147 µM) | 14
7 | O=C(N/N=C/c1ccc(/C=C/C(=O)c2ccc(Cl)cc2Cl)cc1)c1ccncc1 | 16 (≈ 37.7 µM) | 8 (≈ 18.9 µM) | 16 (≈ 37.7 µM) | 32 (≈ 75.4 µM) | 32 (≈ 75.4 µM) | 32 (≈ 75.4 µM) | > 64 | > 64 | 4 (≈ 9.43 µM) | 16 (≈ 37.7 µM) | 16 (≈ 37.7 µM) | 16 (≈ 37.7 µM) | 16 (≈ 37.7 µM) | 83.8
8 | Cc1ccc(C(=O)/C=C/c2ccc(/C=N/NC(=O)c3ccccc3)cc2)c(C)c1 | > 64 | > 64 | > 64 | > 64 | > 64 | > 64 | > 64 | > 64 | > 64 | > 64 | > 64 | > 64 | > 64 | 0.18
9 | Cc1ccc(C(=O)/C=C/c2ccc(/C=N/NC(=O)c3ccncc3)cc2)c(C)c1 | > 64 | > 64 | > 64 | > 64 | > 64 | > 64 | > 64 | > 64 | > 64 | 64 (≈ 167 µM) | 64 (≈ 167 µM) | > 64 | > 64 | 58.5
10 | O=C(N/N=C/c1ccc(/C=C/C(=O)c2ccccc2Cl)cc1)c1cccc(Cl)c1 | 32 (≈ 75.6 µM) | 32 (≈ 75.6 µM) | 32 (≈ 75.6 µM) | > 64 | > 64 | > 64 | > 64 | > 64 | > 64 | 32 (≈ 75.6 µM) | 32 (≈ 75.6 µM) | 32 (≈ 75.6 µM) | 32 (≈ 75.6 µM) | 43
11 | O=C(/C=C/c1ccc(/C=N/NC(=O)c2cccc(Cl)c2)cc1)c1ccc(Cl)cc1 | 32 (≈ 75.6 µM) | 32 (≈ 75.6 µM) | 32 (≈ 75.6 µM) | > 64 | 32 (≈ 75.6 µM) | 32 (≈ 75.6 µM) | > 64 | > 64 | > 64 | 32 (≈ 75.6 µM) | 32 (≈ 75.6 µM) | 32 (≈ 75.6 µM) | 32 (≈ 75.6 µM) | 
12 | O=C(/C=C/c1ccc(/C=N/NC(=O)c2ccncc2)cc1)c1ccc(Br)cc1 | > 64 | > 64 | > 64 | > 64 | > 64 | > 64 | > 64 | > 64 | > 64 | > 64 | 64 (≈ 147 µM) | > 64 | 64 (≈ 147 µM) | 55.7
13 | CCn1cc(C(=O)O)c(=O)c2cc(F)c(N3CCNCC3)cc21 [NORFLOXACIN] |  |  |  |  |  |  |  |  |  | 8 (≈ 25.1 µM) | 4 (≈ 12.5 µM) | > 64 | > 64 | 
14 | N=C(N)N/N=C/c1ccc(/C=C/C(=O)c2ccc(F)cc2)cc1 | 8 (≈ 25.8 µM) | 4 (≈ 12.9 µM) | 8 (≈ 25.8 µM) | 8 (≈ 25.8 µM) | 4 (≈ 12.9 µM) | 8 (≈ 25.8 µM) | 4 (≈ 12.9 µM) | 4 (≈ 12.9 µM) | 4 (≈ 12.9 µM) | 8 (≈ 25.8 µM) | 4 (≈ 12.9 µM) | 8 (≈ 25.8 µM) | 8 (≈ 25.8 µM) | 90.7
15 | CC(C)Cc1ccc(C(C)C(=O)O)cc1 (centres undefined) [IBUPROFEN] |  |  |  |  |  |  |  |  |  |  |  |  |  | 87.4
16 | N=C(N)N/N=C/c1ccc(/C=C/C(=O)c2ccccc2Cl)cc1 | 8 (≈ 24.5 µM) | 8 (≈ 24.5 µM) | 8 (≈ 24.5 µM) | 8 (≈ 24.5 µM) | 8 (≈ 24.5 µM) | 16 (≈ 49 µM) | 8 (≈ 24.5 µM) | 8 (≈ 24.5 µM) | 8 (≈ 24.5 µM) | 8 (≈ 24.5 µM) | 8 (≈ 24.5 µM) | 8 (≈ 24.5 µM) | 16 (≈ 49 µM) | 84.1
17 | N=C(N)N/N=C/c1ccc(/C=C/C(=O)c2ccccc2F)cc1 | 8 (≈ 25.8 µM) | 4 (≈ 12.9 µM) | 8 (≈ 25.8 µM) | 8 (≈ 25.8 µM) | 8 (≈ 25.8 µM) | 16 (≈ 51.6 µM) | 4 (≈ 12.9 µM) | 4 (≈ 12.9 µM) | 8 (≈ 25.8 µM) | 8 (≈ 25.8 µM) | 4 (≈ 12.9 µM) | 8 (≈ 25.8 µM) | 8 (≈ 25.8 µM) | 91.7
18 | O=C(/C=C/c1ccc(/C=N/NC(=O)c2cccc(Cl)c2)cc1)c1cccc(Cl)c1 | 32 (≈ 75.6 µM) | 32 (≈ 75.6 µM) | 32 (≈ 75.6 µM) | > 64 | 32 (≈ 75.6 µM) | 32 (≈ 75.6 µM) | > 64 | > 64 | > 64 | 32 (≈ 75.6 µM) | 32 (≈ 75.6 µM) | 32 (≈ 75.6 µM) | 32 (≈ 75.6 µM) | 
19 | O=C(N/N=C/c1ccc(/C=C/C(=O)c2ccccc2F)cc1)c1ccccc1 | > 64 | > 64 | > 64 | > 64 | > 64 | > 64 | > 64 | > 64 | > 64 | 64 (≈ 172 µM) | 64 (≈ 172 µM) | > 64 | > 64 | 
20 | O=C(N/N=C/c1ccc(/C=C/C(=O)c2ccccc2Br)cc1)c1ccncc1 | > 64 | 64 (≈ 147 µM) | 64 (≈ 147 µM) | 32 (≈ 73.7 µM) | > 64 | > 64 | > 64 | > 64 | 64 (≈ 147 µM) | > 64 | > 64 | > 64 | > 64 | 48.7
21 | OC(Cn1cncn1)(Cn1cncn1)c1ccc(F)cc1F [FLUCONAZOLE] |  |  |  |  |  |  |  |  | 1 (≈ 3.27 µM) |  |  |  |  | 
22 | COc1c(N2CCNC(C)C2)c(F)cc2c(=O)c(C(=O)O)cn(C3CC3)c12 (centres undefined) [GATIFLOXACIN] | 4 (≈ 10.7 µM) | 0.25 (≈ 0.666 µM) | 2 (≈ 5.33 µM) | 0.5 (≈ 1.33 µM) | 2 (≈ 5.33 µM) | 16 (≈ 42.6 µM) | 2 (≈ 5.33 µM) | 1 (≈ 2.66 µM) |  | 2 (≈ 5.33 µM) | 2 (≈ 5.33 µM) | 8 (≈ 21.3 µM) | 4 (≈ 10.7 µM) | 
23 | Cc1onc(-c2ccccc2)c1C(=O)N[C@@H]1C(=O)N2[C@@H]1SC(C)(C)[C@@H]2C(=O)O [OXACILLIN] |  |  |  |  |  |  |  |  |  | > 64 | > 64 | 1 (≈ 2.49 µM) | 1 (≈ 2.49 µM) | 
24 | COc1c(N2C[C@@H]3CCCN[C@@H]3C2)c(F)cc2c(=O)c(C(=O)O)cn(C3CC3)c12 [MOXIFLOXACIN] | 2 (≈ 4.98 µM) | 0.25 (≈ 0.623 µM) |  | 0.25 (≈ 0.623 µM) |  | 128 (≈ 319 µM) | 1 (≈ 2.49 µM) |  |  |  |  |  |  | 
